# “Also recorded” adds a separate entry of the source.
# Tests used:
# [1] = tested on: C57BL/6J diet-induced obese (DIO) mice; conditions: cited from earlier work
# [2] = tested on: subjects with impaired glucose metabolism; conditions: 26 weeks; cited from earlier work
# prediabetes patients = conditions: cited from earlier work
# pancreatic beta cells = conditions: cited from earlier work
# C57BL/6J obese mice [3] = conditions: cited from earlier work
# C57BL/6J obese mice [4] = conditions: cited from earlier work; remark: listed apart in the source
# C57BL/6J DIO mice = conditions: Metformin alone (150 mg/Kg/day), 29-day study
# Source text: Age and weight-matched C57BL/6J lean and DIO male mice were obtained from Jackson Labs (Bar Harbor, Me.). C57BL/6J DIO mice were fed high-fat diet (HFD) for 16 weeks to induce hepatic insulin resistance and pancreatic beta cell dysfunction. […] Lean control mice were maintained on D12450B (10% Kcal fat) Chow diet and DIO animals were maintained D12492 (60% KCal fat) research diets. Tap water was available ad libitum during the study. Animals were acclimated for a week. […] Test articles or the drugs were reconstituted in DMSO and 0.5% Methyl cellulose was used as the vehicle.
# In a 29-day study, sub-maximal dose of Metformin (150 mg/Kg/day) and sub-maximal doses of Celecoxib (10 mg/Kg/day or 20 mg/Kg/day) were administered together or the vehicle was administered as an oral gavage in the morning and a sub-hypertensive dose of Valsartan (2 mg/Kg/day) or the vehicle was administered 6 hours later. Non-fasting BG measurements will be taken on Days 1, 15, 22, and 29. Animals were transferred to clean cages, food and water were uninterrupted. A blood sample was collected via tail nick and blood glucose was assessed using a hand-held Glucometer. Body weights were determined twice weekly for the duration of the study period.
# [5] = tested on: C57BL/6J diet-induced obese (DIO) mice; conditions: cited from earlier work; remark: listed apart in the source
# C57BL/6J mice = conditions: mouse, in vivo; cited from earlier work
# [6] = tested on: male Sprague Dawley rats fed with High fructose diet or High fat diet (HFD); conditions: rat, in vivo; cited from earlier work
# [7] = clinical study; cited from earlier work
# obese patients with T2DM = conditions: translational preclinical models and obese patients with T2DM; cited from earlier work
structure (smiles),measurement,setting,value
CCCCC(=O)N(Cc1ccc(-c2ccccc2-c2nnn[nH]2)cc1)[C@H](C(=O)O)C(C)C [Valsartan],systolic blood pressure,"[1]; 1 mg/Kg/day, C57BL/6J obese mice",no effect
same,glucose tolerance,"[1]; overnight fast, IP 2 g/Kg glucose",improves
same,impaired glucose tolerance,"[1]; sub-hypertensive dose 1 mg/Kg/day, C57BL/6J obese mice",improves
same,beta cells function and insulin sensitivity,[2],improved
same,onset of Type II diabetes,prediabetes patients,delay the onset
CS(=O)(=O)Nc1ccc([N+](=O)[O-])cc1OC1CCCCC1 [NS-398],beta cell dysfunction,pancreatic beta cells,reverses
NS(=O)(=O)c1ccc(-n2nc(C(F)(F)F)cc2-c2ccc(Cl)cc2)cc1 [SC58236],HbA1c levels,C57BL/6J obese mice [3]; C57BL/6J obese mice,reduces
same,reduction of HbA1c levels,C57BL/6J obese mice [3]; selective Cox-2 inhibition,about 0.4%
same,glucose tolerance (IPGTT),"C57BL/6J obese mice [4]; 6 hour fast, glucose 2 g/Kg",improves
same,plasma insulin levels,C57BL/6J obese mice [4]; after glucose injection,elevates
CN(C)C(=N)N=C(N)N [Metformin],elevated non-fasting BG levels,C57BL/6J DIO mice,actually enhanced; also recorded: did not suppress
same,glucose tolerance (OGTT),"[5]; 2 g/Kg glucose after 20 hour fast, 0.25% and 0.5% Metformin = 150 and 300 mg/Kg/day",improves
same,HFD-induced insulin resistance,[5]; C57BL/6J DIO model,ameliorates
COc1ccc2c(c1)c(CC(=O)O)c(C)n2C(=O)c1ccc(Cl)cc1 [Indomethacin],HFD-induced obesity and insulin resistance,C57BL/6J mice,prevented
CS(=O)(=O)Nc1ccc([N+](=O)[O-])cc1Oc1ccccc1 [Mesulid],insulin sensitivity,[6],restore
same,low-grade inflammation,[6],reverse
same,oxidative stress,[6],reduce
O=C(Oc1ccccc1C(=O)O)c1ccccc1O [Salsalate],"reduction of glycosylated hemoglobin A1c, average",[7],0.37%
same,systemic insulin sensitivity,obese patients with T2DM,restore

# — US9839644B2, “Formulations and methods for treatment of metabolic syndrome” (ARKAY Therapeutics, LLC, priority 2014, dated 2017)
